Measured values as given in patent US5750540A, “1,4-di-substituted piperidine derivatives” (Banyu Pharmaceutical Co., Ltd., priority 1995, dated 1998).

Key:
muscarinic M3 receptor [1] = target: T1, muscarinic M3 receptor (Rattus norvegicus, UniProt P08483); test: Intravesical bladder pressure in rats; assay type: in vivo; set-up: from tissue; settings: i.v., 25% inhibition of peak intravesical bladder pressure
Procedure: (§1) Tests for antagonism against muscarinic M3 receptor (in vivo)
4) Tests for intravesical bladder pressure in rats
These tests were performed according to the method of Maggi et al. (Drug Dev. Res. 10: 157-170, 1987). Briefly, eight- to ten-weeks-old male rats of the Sprague-Dawley strain, weighing 330-370 g, were anesthetized by subcutaneous administration of urethane (1 g/kg) and α-chloralose (50 mg/kg), and the right jugular vein was cannulated for drug administration. The body temperature was kept constant by means of a heating pad maintained at 37° C. Through a midline incision of the abdomen, the urinary bladder was exposed and emptied of urine by the application of a slight manual pressure. A 20-gauge needle was inserted through the apex of the bladder dome by 3-4 mm into its lumen. The needle had previously been connected to a pressure transducer and an infusion pump by means of polyethylene tubing and the whole system filled with saline. After a 30-minutes equilibration period at zero volume, saline was infused (2.8 ml/hr) until a coordinated sustained contraction, reflecting the peak intravesical bladder pressure, occured. The bladder was then emptied manually and allowed to rest for five minutes. PvesP was defined as the difference between the maximum and resting bladder pressures. This procedure was repeated at least five times and the evaluation of a test compound was carried out in the animals in which a stable peak intravesical bladder pressure was recorded. The drug potency (ID25 ) was determined after intravenous administration of the test compound during the rest period. Five minutes after drug administration, the infusion of saline was started to induce micturition contraction and the peak intravesical bladder pressure was recorded. The depression in peak intravesical bladder pressure was expressed as a percent of the control peak intravesical bladder pressure observed before administration of the test compound. The ID25 value, calculated by probit analysis, was defined as the drug dose that inhibited the control peak intravesical bladder pressure by 25%.

[2] = target: T2, intestinal M3 receptors (ileum) (Rattus norvegicus, UniProt P08483); test: Antagonism against intestinal M3 receptors in an isolated rat ileum; settings: in vitro, agonist carbachol
T2 construct: the ileum was excised; from tissue; host or cells: isolated rat ileum
T2 sequence (P08483 whole entry): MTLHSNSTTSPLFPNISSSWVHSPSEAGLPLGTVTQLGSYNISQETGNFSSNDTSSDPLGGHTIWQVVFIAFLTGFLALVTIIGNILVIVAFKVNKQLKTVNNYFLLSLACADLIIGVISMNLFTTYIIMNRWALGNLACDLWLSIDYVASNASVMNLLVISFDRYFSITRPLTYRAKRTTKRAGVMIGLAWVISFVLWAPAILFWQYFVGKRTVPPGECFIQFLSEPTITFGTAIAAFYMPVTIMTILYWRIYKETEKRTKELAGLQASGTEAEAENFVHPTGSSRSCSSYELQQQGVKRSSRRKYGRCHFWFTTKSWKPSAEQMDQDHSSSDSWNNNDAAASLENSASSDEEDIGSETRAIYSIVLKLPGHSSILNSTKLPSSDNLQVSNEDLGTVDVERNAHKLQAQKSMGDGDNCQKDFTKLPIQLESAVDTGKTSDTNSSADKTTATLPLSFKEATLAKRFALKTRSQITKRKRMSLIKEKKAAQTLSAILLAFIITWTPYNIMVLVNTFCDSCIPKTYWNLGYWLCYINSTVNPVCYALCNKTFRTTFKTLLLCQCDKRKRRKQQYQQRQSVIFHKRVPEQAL
Procedure: 4) Tests for antagonism against the intestinal M3 receptors in an isolated rat ileum
A male SD strain rat (weighing 300-500 g) was killed by exsanguination, and the ileum was excised. This ileum was cut to make ileum preparations having a length of 2 cm. A preparation was suspended in a Magnus tube filled with 20 ml of Krebs-Henseleit nutrient solution (gassed with 95% O2 -5% CO2 and kept at 32° C.) under a load of 0.5 g. The tension of the preparation was recorded isotonically. After being equilibrated for an hour, the preparation was made to contract twice by treatment with 10^-4 M carbachol, and the second contraction induced by carbachol was used as the reference contraction. After the preparation was washed with fresh solution to make a return to the base line, a test compound was administered thereto (or no treatment was made). Ten minutes later, carbachol (10^-8 to 10^-3 M) was cumulatively administered from the lowermost concentration in three-fold increasing doses to obtain a dose-response curve. The dose-response curve was constructed by expressing responses as percentages based on the reference contraction of the preparation. The antagonistic potency (KB value) of the test compound was determined from the degree of shift of the dose-response curve obtained by treatment with the test compound.

muscarinic M3 receptor [3] = target: T1, muscarinic M3 receptor; test: in vivo; set-up: from tissue; host or cells: living rat, airways; settings: iv, 5 min, read-out: Airway contraction ID50
Procedure: as §1
1) Tests for bronchodilation in rats
Eight- to eleven-weeks-old male rats of the Sprague-Dawley strain, weighing 300-400 g, were anesthetized with urethane (750 mg/kg, i.p.) and a-chloralose (37.5 mg/kg, i.p.). A bronchus was intubated, and the right jugular vein was cannulated for drug administration. […] To evoke an increase in airway resistance, acetylcholine (50 μg/kg, i.v.) was administered to the animals. Mean values for the acetylcholine-induced increase in airway resistance as measured five minutes before (control) and five minutes after test compound administration were calculated and the results were expressed as percentages of the control response. The ID50 value was calculated from the dose-response curve of the test compound using probit analysis and defined as the drug dose that inhibited the acetylcholine-induced increase in airway resistance in the control group by 50 %.

muscarinic M3 receptor [4] = target: T1, muscarinic M3 receptor; test: Intestinal propulsion in rats (charcoal meal); assay type: in vivo; set-up: from tissue; settings: i.v., 15% inhibition of intestinal propulsion
Procedure: as §1
5) Tests for intestinal propulsion in rats
Five- to seven-weeks-old male rats of the Sprague-Dawley strain were fasted overnight. A test compound was administered intravenously to the animals. Five minutes later, 1 ml per animal of a 5% charcoal suspension was administered orally. Thirty minutes after administration of the charcoal meal, the rats were sacrificed by decapitation, and the gastrointestinal tract was removed. The distance from the pylorus to the point of arrival of the charcoal meal was measured and the transportation rate was calculated. The ID15 value was calculated from the dose-response curve using probit analysis and defined as the drug dose that inhibited intestinal propulsion in the control group by 15%.

bladder M3 receptors = target: T3, bladder M3 receptors (Rattus norvegicus, UniProt P08483); test: Antagonism against bladder M3 receptors in an isolated rat bladder; settings: in vitro, agonist carbachol
T3 construct: the bladder was excised; from tissue; host or cells: isolated rat bladder
T3 sequence (P08483 whole entry): as above
Procedure: 5) Tests for antagonism against the bladder M3 receptors in an isolated rat bladder
These tests were performed according to an ordinary method. A male SD strain rat (weighing 200-400 g) was killed by exsanguination, and the bladder was excised. This bladder axially cut into eight parts to make bladder preparations. A preparation was suspended in a Magnus tube filled with 5 ml of Krebs-Henseleit nutrient solution (gassed with 95% O2 -5% CO2 and kept at 32° C.) with an initial tension of 0.5 g. The tension of the preparation was recorded isometrically. After being equilibrated for an hour, the preparation was made to contract twice by treatment with 10^-4 M carbachol, and the second contraction induced by carbachol was used as the reference contraction. After the preparation was washed with fresh solution to make a return to the base line, a test compound was administered thereto (or no treatment was made). Ten minutes later, carbachol (10^-8 to 10^-3 M) was cumulatively administered from the lower-most concentration in three-fold increasing doses to obtain a dose-response curve. The dose-response curve was constructed by expressing responses as percentages based on the reference contraction of the preparation. The antagonistic potency (KB value) of the test compound was determined from the degree of shift of the dose-response curve obtained by treatment with the test compound.

T1 sequence (P08483 whole entry): as above

With `CC(C)=CCCN1CCC(NC(=O)C(O)(c2ccccc2)C2CCC2)CC1` (centres unmarked) [Example 1, N-[1-(4-methyl-3-pentenyl)-piperidin-4-yl]-2-cyclobutyl-2-hydroxy-2-phenylacetamide] the “Urinating contraction ID25” value (muscarinic M3 receptor [1]) was 1.3 mg/kg i.v, the Kb [2] was 24 nM and the ED50 (muscarinic M3 receptor [3]) was 0.023 mg/kg. The “Enterokinesis ID15” value (muscarinic M3 receptor [4]) was 0.67 mg/kg i.v and the Kb (bladder M3 receptors) was 31 nM.
